Patent US20220162215A1, “COMPOSITIONS AND METHODS OF USING THE SAME FOR TREATMENT OF NEURODEGENERATIVE AND MITOCHONDRIAL DISEASE” (MITOKININ, INC., priority 2019, published 2022)
Values after ≈ are worked out from the molar mass of the structure shown. Read-outs that look alike come from different tables or passages of the source.

Key:
HeLa MKYP cells [1] = experiment: Human mitophagy assay (HeLa MKYP, mtKeima FACS, FCCP/oligomycin); assay type: cell-based
Procedure: Briefly, HeLa MKYP cells were plated at 10,000 cells/well in 96 well plates along with compounds at various concentrations. Following 16 hrs of incubation, cells were treated with 1 uM FCCP/oligomycin for 6 hours, then analyzed via FACS for the presence of mitochondria in lysosomes (as determined by an emissions spectrum shift from the pH-sensitive mtKeima tag). Examples are shown in FIG. 1 through FIG. 13 below.

HeLa MKYP cells [2] = experiment: Toxicity / cell death measured by DAPI staining (take-up); assay type: cell-based; conditions: for Toxicity (% positive for DAPI takeup @ 50 μM): Table 3; for Max cell death at 25 uM compound, 1 uM FO / Cell death at 25 μM (no FO): Table 3 Supplement B
Procedure: H2O2 treatment was performed as a control for cell death as measured by DAPI staining.
Briefly, HeLa MKYP cells were plated at 10,000 cells/well in 96 well plates along with compounds at various concentrations. Following 16 hrs of incubation, cells were treated with 1 uM FCCP/oligomycin for 6 hours, then analyzed via FACS for the presence of mitochondria in lysosomes (as determined by an emissions spectrum shift from the pH-sensitive mtKeima tag).

Solubility in 1× PBS = assay type: physicochemical
mitotoxicity = experiment: Mitotox safety margin (therapeutic window); assay type: cell-based; conditions: for Mitotox safety margin (Therapeutic window): class of the Ratio; for Ratio**: highest concentration with no observable mitotoxicity (μM) divided by the EC50 (μM) of the compound
[3] = Homo sapiens, HeLa, Table 3, read-out: Potency at 1 μM F/O toxin* (EC50 of mitophagy activation)
[4] = Homo sapiens, HeLa, Table 3 Supplement B, read-out: Mitophagy EC50 (HeLa mKeima assay)
[5] = Table 3, read-out: Potency at 1 μM F/O toxin* (EC50 of mitophagy activation)

Row | SMILES | EC50 (HeLa MKYP cells [1]; [3]) | EC50 (HeLa MKYP cells [1]; [4]) | Toxicity (% positive for DAPI takeup @ 50 μM) (HeLa MKYP cells [2]; 50 μM) | Max cell death at 25 uM compound, 1 uM FO (HeLa MKYP cells [2]) | Cell death at 25 μM (no FO) (HeLa MKYP cells [2]) | solubility (Solubility in 1× PBS) | Mitotox safety margin (Therapeutic window) (mitotoxicity) | Ratio** (mitotoxicity) | also measured
1 | c1ccc2c(c1)CCC[C@H]2Nc1ncnc2[nH]c(C3CC3)cc12 [Compound 107] | 0.48 µM | 0.47 µM | 16.6% | 14.9% | 9.32% | 1 µM (≈ 0.304 µg/mL) | ++++ (ratio 30<) | 53.2 | –
2 | CN1CC[C@H](Nc2ncnc3[nH]c(C(F)(F)F)cc23)c2ccccc21 [Compound 81] | – | 1.33 µM | 59.0% | 16% | 2.51% | 74.8 µM (≈ 26 µg/mL) | ++++ (ratio 30<) | 30 | EC50 (HeLa MKYP cells [1]; [5]): 1.7 µM
3 | C[C@H]1CCc2ccccc2[C@@H]1Nc1ncnc2[nH]c(C(F)(F)F)cc12 [Compound 82] | 1 µM | 1.02 µM | 28.3% | – | – | 1 µM (≈ 0.346 µg/mL) | – | – | Max cell death at 25 uM compound, 1 uM FO (HeLa MKYP cells [2]; listed as EP-0037059): 26%; Cell death at 25 μM (no FO) (HeLa MKYP cells [2]; listed as EP-0037059): 4.9%; Mitotox safety margin (Therapeutic window) (mitotoxicity; listed as EP-0037059): + (ratio <10); Ratio** (mitotoxicity; listed as EP-0037059): 8.69
4 | CC[C@@H]1CCc2ccccc2[C@@H]1Nc1ncnc2[nH]c(C(F)(F)F)cc12 [Compound 100] | 1.8 µM | 1.81 µM | 8.7% | 8.735% | 5.04% | 9.39 µM (≈ 3.38 µg/mL) | ++ (ratio 10< × <20) | 13.8 | –
5 | C[C@H]1CCc2ccccc2[C@H]1Nc1ncnc2[nH]c(C(F)(F)F)cc12 [Compound 85] | – | 1.08 µM | 31.4% | – | – | – | + (ratio <10) | 7.74 | EC50 (HeLa MKYP cells [1]; [5]): 1.1 µM; Max cell death at 25 uM compound, 1 uM FO (HeLa MKYP cells [2]; listed as EP-0037094): 31.4%; Cell death at 25 μM (no FO) (HeLa MKYP cells [2]; listed as EP-0037094): 7.13%
6 | COc1ccc2c(c1)[C@@H](Nc1ncnc3[nH]c(C(F)(F)F)cc13)CCC2 [Compound 87] | – | – | 5.9% | – | – | 1.2 µM (≈ 0.435 µg/mL) | – | – | EC50 (HeLa MKYP cells [1]; [5]): 9.5 µM; EC50 (HeLa MKYP cells [1]; Table 3 Supplement B, listed as EP-0037131, read-out: Mitophagy EC50 (HeLa mKeima assay)): 9.46 µM; Max cell death at 25 uM compound, 1 uM FO (HeLa MKYP cells [2]; listed as EP-0037131): 5.9%; Cell death at 25 μM (no FO) (HeLa MKYP cells [2]; listed as EP-0037131): 1.2%
7 | O[C@H]1Cc2ccccc2[C@H]1Nc1ncnc2[nH]c(C(F)(F)F)cc12 [Compound 83] | > 50 µM | – | 21.2% | 21.2% | 2.75% | 194 µM (≈ 64.9 µg/mL) | – | – | Mitophagy EC50 (HeLa mKeima assay) (HeLa MKYP cells [1]; Table 3 Supplement B): Minimal activity
8 | FC(F)(F)c1cc2c(N[C@@H]3CCOc4ccccc43)ncnc2[nH]1 [Compound 37] | 6.3 µM | 6.25 µM | 21.1% | 21% | 3.04% | 150 µM (≈ 50.1 µg/mL) | + (ratio <10) | 8.85 | EC50 (HeLa MKYP cells [1]; Homo sapiens, HeLa, Table 3 Supplement A, as measured in Table 3, read-out: Potency (EC50 Max Mitophagy) (μM)*): 6.28 µM; Toxicity (% positive for DAPI take-up at 50 μM)* (HeLa MKYP cells [2]; Table 3 Supplement A, 50 μM): 21.05%
9 | O[C@@H]1Cc2ccccc2[C@H]1Nc1ncnc2[nH]c(C(F)(F)F)cc12 [Compound 88] | – | 15.1 µM | 7.6% | 7.59% | 2.35% | 19.2 µM (≈ 6.42 µg/mL) | + (ratio <10) | 1.66 | –
10 | N#Cc1cccc2c1CCCC2Nc1ncnc2[nH]c(C(F)(F)F)cc12 (stereo not drawn) [Compound 92] | 3 µM | 2.98 µM | 71.2% | 71.2% | 57.1% | 1 µM (≈ 0.357 µg/mL) | + (ratio <10) | 8.39 | –
11 | CO[C@@H]1COc2ccccc2[C@H]1Nc1ncnc2[nH]c(C(F)(F)F)cc12 [Compound 97] | 6.3 µM | 6.32 µM | 10.6% | 10.645% | 2.61% | 16.4 µM (≈ 5.97 µg/mL) | – | – | –
12 | CO[C@H]1COc2ccccc2[C@@H]1Nc1ncnc2[nH]c(C(F)(F)F)cc12 [Compound 104] | – | – | 7.7% | – | – | – | – | – | EC50 (HeLa MKYP cells [1]; [5]): 1.5 µM; EC50 (HeLa MKYP cells [1]; Table 3 Supplement B, listed as EP-0037962, read-out: Mitophagy EC50 (HeLa mKeima assay)): 1.48 µM; Max cell death at 25 uM compound, 1 uM FO (HeLa MKYP cells [2]; listed as EP-0037962): 7.67%; Cell death at 25 μM (no FO) (HeLa MKYP cells [2]; listed as EP-0037962): 5.15%; solubility (Solubility in 1× PBS; aqueous buffer): 1.31 µM (≈ 0.477 µg/mL)
13 | C[C@H]1CCc2ccccc2[C@H]1Nc1ncnc2[nH]c(C(F)(F)F)cc12 [Compound 101] | – | – | 12.0% | – | – | – | – | – | EC50 (HeLa MKYP cells [1]; [5]): > 50 µM; Mitophagy EC50 (HeLa mKeima assay) (HeLa MKYP cells [1]; Table 3 Supplement B): Minimal activity; Max cell death at 25 uM compound, 1 uM FO (HeLa MKYP cells [2]; listed as EP-0037881): 12%; Cell death at 25 μM (no FO) (HeLa MKYP cells [2]; listed as EP-0037881): 6.45%; solubility (Solubility in 1× PBS; aqueous buffer): 7.79 µM (≈ 2.7 µg/mL)
14 | CO[C@H]1COc2ccccc2[C@@H]1Nc1ncnc2[nH]c(C(F)(F)F)cc12 [Compound 98] | – | – | 15.9% | – | – | 16.3 µM (≈ 5.94 µg/mL) | – | – | EC50 (HeLa MKYP cells [1]; Table 3 Supplement B, listed as EP-0037863, read-out: Mitophagy EC50 (HeLa mKeima assay)): 4 µM; Max cell death at 25 uM compound, 1 uM FO (HeLa MKYP cells [2]; listed as EP-0037863): 15.865%; Cell death at 25 μM (no FO) (HeLa MKYP cells [2]; listed as EP-0037863): 3.66%
15 | C[C@@H]1CCc2ccccc2[C@H]1Nc1ncnc2[nH]c(C(F)(F)F)cc12 [Compound 103] | 4.2 µM | 4.18 µM | 23.8% | 23.8% | 17.9% | 1 µM (≈ 0.346 µg/mL) | – | – | –
16 | CN(C)[C@H]1CCc2ccccc2[C@@H]1Nc1ncnc2[nH]c(C(F)(F)F)cc12 [Compound 108] | > 50 µM | 0.81 µM | 79.3% | 79.29% | 4.33% | 190 µM (≈ 71.3 µg/mL) | – | – | –
17 | O[C@@H]1Cc2ccccc2[C@@H]1Nc1ncnc2[nH]c(C(F)(F)F)cc12 [Compound 84] | 9 µM | 9.04 µM | 35.6% | 35.6% | 5.5% | 194 µM (≈ 64.9 µg/mL) | – | – | –
18 | Fc1ccc2c(c1)CCCC2Nc1ncnc2[nH]c(C(F)(F)F)cc12 (stereo not drawn) [Compound 109] | > 50 µM | 1.06 µM | 30.1% | 30.1% | 3.27% | 1 µM (≈ 0.35 µg/mL) | – | – | –
